{"source": "paper PMC8854719", "about": "“Phase 1A/1B dose-escalation and -expansion study to evaluate the safety, pharmacokinetics, food effects and antitumor activity of pamiparib in advanced solid tumours” (British Journal of Cancer, 2021)", "system": "advanced solid tumours", "experiment": "Tumour response and PFS per RECIST v1.1, overall efficacy-evaluable population", "assay_type": "in vivo, human", "settings": "for Best overall response: Not evaluable / Best overall response: Partial response / Best overall response: Progressive disease / Best overall response: Stable disease / Clinical benefit rate / Disease control rate / Objective response rate / Best overall response: Complete response / Best overall response: Not assessed: dose escalation", "experimental": "Pamiparib in plasma was measured using a validated liquid chromatography-tandem–mass spectrometry assay with a lower limit of quantification of 1.0 ng/mL. The collection schedule for blood samples used to assess the PK profile is presented in the Supplemental Appendix. Summary PK parameters, including area under the concentration-time curve from time 0 to 9 h (AUC0-9) or infinity (AUC0-inf), maximal plasma concentration (Cmax) and time to maximal plasma concentration (Tmax), were estimated. The pharmacodynamic (PD) activity of pamiparib was explored through the evaluation of poly(ADP-ribose [PAR]) formation in peripheral blood mononuclear cells (PBMCs) after pamiparib administration. The schedule for blood sample collection (PK and PBMCs) and additional assessment information for PAR levels in PBMCs and pharmacodynamic activity is presented in the Supplemental Appendix. Antitumor activity was assessed by radiographic imaging (computed tomography or magnetic resonance imaging) during screening, within 28 days of first pamiparib dose, every 6 weeks in the first 12 months and every 9 weeks thereafter.\nTumour response was evaluated by RECIST v1.1. For patients with ovarian cancer, tumour response was assessed per RECIST v1.1 and by Gynecologic Cancer Intergroup (GCIG) CA-125 criteria. Tumour response for patients with prostate cancer was assessed by Prostate Cancer Clinical Trials Working Group 2 (PCWG2) criteria. Objective response rate (ORR) was defined as the proportion of patients achieving a confirmed complete response (CR) or partial response (PR) on study treatment. Blood tumour antigens (e.g., carcinoembryonic antigen for colorectal cancer, CA-125 for ovarian cancer and prostate-specific antigen [PSA] for mCRPC) were assessed during screening, every 6 weeks after the first pamiparib dose in the first 12 months, and every 9 weeks thereafter.\nThe safety population comprised all patients in the dose-escalation and dose-expansion phases who received at least one dose of pamiparib (Supplementary Table S2). Patients in the safety analysis set for whom valid pamiparib PK parameters were estimated and for whom evaluable PD results were available represented the PK population and the PD population, respectively. The efficacy-evaluable population included patients in the safety analysis set who had at least one evaluable postbaseline tumour assessment or those who discontinued due to clinical disease progression or early death before tumour assessment could be performed. The EOC efficacy-evaluable population was a subset of the overall efficacy-evaluable population that included patients with EOC from both the dose-escalation and dose-expansion phases. Patients in the dose-expansion phase without measurable disease at baseline per RECIST v1.1 were excluded from the efficacy-evaluable population.\nDescriptive statistics were used to summarise all study data (see Supplemental Appendix). Progression-free survival (PFS) and event-free rates were estimated using the Kaplan–Meier method along with the corresponding 95% CI. Pharmacokinetic parameters were derived using standard non-compartmental methods with Phoenix WinNonlin Version 6.4 or higher (Pharsight Corp., Mountain View, California).", "key": {"[1]": {"settings": "overall efficacy-evaluable population (n=95)"}}}
{"smiles": "C[C@]12CCCN1CC1=NNC(=O)c3cc(F)cc4[nH]c2c1c34", "note": "[pamiparib]", "values": [{"measurement": "Best overall response: Not evaluable", "setting": "10 mg BID (n=3)", "result": "0 (0.0) n (%)"}, {"measurement": "Best overall response: Partial response", "setting": "10 mg BID (n=3)", "result": "0 (0.0) n (%)"}, {"measurement": "Best overall response: Progressive disease", "setting": "10 mg BID (n=3)", "result": "1 (33.3) n (%)"}, {"measurement": "Best overall response: Stable disease", "setting": "10 mg BID (n=3)", "result": "2 (66.7) n (%)"}, {"measurement": "Clinical benefit rate", "setting": "10 mg BID (n=3)", "result": "0.0 (0.00-70.76) % (95% CI)"}, {"measurement": "Disease control rate", "setting": "10 mg BID (n=3)", "result": "66.7 (9.43-99.16) % (95% CI)"}, {"measurement": "Objective response rate", "setting": "10 mg BID (n=3)", "result": "0.0 (0.00-70.76) % (95% CI)"}, {"measurement": "Best overall response: Complete response", "setting": "20 mg BID (n=3)", "result": "1 (33.3) n (%)"}, {"measurement": "Best overall response: Not assessed", "setting": "20 mg BID (n=3)", "result": "0 (0.0) n (%)"}, {"measurement": "Best overall response: Not evaluable", "setting": "20 mg BID (n=3)", "result": "0 (0.0) n (%)"}, {"measurement": "Best overall response: Partial response", "setting": "20 mg BID (n=3)", "result": "1 (33.3) n (%)"}, {"measurement": "Best overall response: Progressive disease", "setting": "20 mg BID (n=3)", "result": "1 (33.3) n (%)"}, {"measurement": "Best overall response: Stable disease", "setting": "20 mg BID (n=3)", "result": "0 (0.0) n (%)"}, {"measurement": "Clinical benefit rate", "setting": "20 mg BID (n=3)", "result": "66.7 (9.43-99.16) % (95% CI)"}, {"measurement": "Disease control rate", "setting": "20 mg BID (n=3)", "result": "66.7 (9.43-99.16) % (95% CI)"}, {"measurement": "Objective response rate", "setting": "20 mg BID (n=3)", "result": "66.7 (9.43-99.16) % (95% CI)"}, {"measurement": "Best overall response: Complete response", "setting": "40 mg BID (n=6)", "result": "0 (0.0) n (%)"}, {"measurement": "Best overall response: Not assessed", "setting": "40 mg BID (n=6)", "result": "0 (0.0) n (%)"}, {"measurement": "Best overall response: Not evaluable", "setting": "40 mg BID (n=6)", "result": "0 (0.0) n (%)"}, {"measurement": "Best overall response: Partial response", "setting": "40 mg BID (n=6)", "result": "2 (33.3) n (%)"}, {"measurement": "Best overall response: Progressive disease", "setting": "40 mg BID (n=6)", "result": "0 (0.0) n (%)"}, {"measurement": "Best overall response: Stable disease", "setting": "40 mg BID (n=6)", "result": "4 (66.7) n (%)"}, {"measurement": "Clinical benefit rate", "setting": "40 mg BID (n=6)", "result": "33.3 (4.33-77.72) % (95% CI)"}, {"measurement": "Disease control rate", "setting": "40 mg BID (n=6)", "result": "100.0 (54.07-100.00) % (95% CI)"}, {"measurement": "Objective response rate", "setting": "40 mg BID (n=6)", "result": "33.3 (4.33-77.72) % (95% CI)"}, {"measurement": "Best overall response: Complete response", "setting": "60 mg BID (n=11)", "result": "1 (9.1) n (%)"}, {"measurement": "Best overall response: Not assessed", "setting": "60 mg BID (n=11)", "result": "2 (18.2) n (%)"}, {"measurement": "Best overall response: Not evaluable", "setting": "60 mg BID (n=11)", "result": "0 (0.0) n (%)"}, {"measurement": "Best overall response: Partial response", "setting": "60 mg BID (n=11)", "result": "0 (0.0) n (%)"}, {"measurement": "Best overall response: Progressive disease", "setting": "60 mg BID (n=11)", "result": "3 (27.3) n (%)"}, {"measurement": "Best overall response: Stable disease", "setting": "60 mg BID (n=11)", "result": "5 (45.5) n (%)"}, {"measurement": "Clinical benefit rate", "setting": "60 mg BID (n=11)", "result": "18.2 (2.28-51.78) % (95% CI)"}, {"measurement": "Disease control rate", "setting": "60 mg BID (n=11)", "result": "54.5 (23.38-83.25) % (95% CI)"}, {"measurement": "Objective response rate", "setting": "60 mg BID (n=11)", "result": "9.1 (0.23-41.28) % (95% CI)"}, {"measurement": "Best overall response: Complete response", "setting": "80 mg BID (n=9)", "result": "1 (11.1) n (%)"}, {"measurement": "Best overall response: Not assessed", "setting": "80 mg BID (n=9)", "result": "1 (11.1) n (%)"}, {"measurement": "Best overall response: Not evaluable", "setting": "80 mg BID (n=9)", "result": "0 (0.0) n (%)"}, {"measurement": "Best overall response: Partial response", "setting": "80 mg BID (n=9)", "result": "1 (11.1) n (%)"}, {"measurement": "Best overall response: Progressive disease", "setting": "80 mg BID (n=9)", "result": "1 (11.1) n (%)"}, {"measurement": "Best overall response: Stable disease", "setting": "80 mg BID (n=9)", "result": "5 (55.6) n (%)"}, {"measurement": "Clinical benefit rate", "setting": "80 mg BID (n=9)", "result": "44.4 (13.70-78.80) % (95% CI)"}, {"measurement": "Disease control rate", "setting": "80 mg BID (n=9)", "result": "77.8 (39.99-97.19) % (95% CI)"}, {"measurement": "Objective response rate", "setting": "80 mg BID (n=9)", "result": "22.2 (2.81-60.01) % (95% CI)"}, {"measurement": "Best overall response: Complete response", "setting": "120 mg BID (n=5)", "result": "0 (0.0) n (%)"}, {"measurement": "Best overall response: Not assessed", "setting": "120 mg BID (n=5)", "result": "1 (20.0) n (%)"}, {"measurement": "Best overall response: Not evaluable", "setting": "120 mg BID (n=5)", "result": "1 (20.0) n (%)"}, {"measurement": "Best overall response: Partial response", "setting": "120 mg BID (n=5)", "result": "1 (20.0) n (%)"}, {"measurement": "Best overall response: Progressive disease", "setting": "120 mg BID (n=5)", "result": "1 (20.0) n (%)"}, {"measurement": "Best overall response: Stable disease", "setting": "120 mg BID (n=5)", "result": "1 (20.0) n (%)"}, {"measurement": "Clinical benefit rate", "setting": "120 mg BID (n=5)", "result": "20.0 (0.51-71.64) % (95% CI)"}, {"measurement": "Disease control rate", "setting": "120 mg BID (n=5)", "result": "40.0 (5.27-85.34) % (95% CI)"}, {"measurement": "Objective response rate", "setting": "120 mg BID (n=5)", "result": "20.0 (0.51-71.64) % (95% CI)"}, {"measurement": "Best overall response: Complete response", "setting": "Total BID (N=44)", "result": "3 (6.8) n (%)"}, {"measurement": "Best overall response: Not assessed", "setting": "Total BID (N=44)", "result": "7 (15.9) n (%)"}, {"measurement": "Best overall response: Not evaluable", "setting": "Total BID (N=44)", "result": "1 (2.3) n (%)"}, {"measurement": "Best overall response: Partial response", "setting": "Total BID (N=44)", "result": "7 (15.9) n (%)"}, {"measurement": "Best overall response: Progressive disease", "setting": "Total BID (N=44)", "result": "8 (18.2) n (%)"}, {"measurement": "Best overall response: Stable disease", "setting": "Total BID (N=44)", "result": "18 (40.9) n (%)"}, {"measurement": "Clinical benefit rate", "setting": "Total BID (N=44)", "result": "29.5 (16.76-45.20) % (95% CI)"}, {"measurement": "Disease control rate", "setting": "Total BID (N=44)", "result": "63.6 (47.77-77.59) % (95% CI)"}, {"measurement": "Objective response rate", "setting": "Total BID (N=44)", "result": "22.7 (11.47-37.84) % (95% CI)"}, {"measurement": "Patients who died", "setting": "efficacy-evaluable patients (N 95), n = 10", "result": 10.5, "unit": "%"}, {"measurement": "Patients who progressed", "setting": "efficacy-evaluable patients (N 95), n = 50", "result": 52.6, "unit": "%"}, {"measurement": "Patients who died or progressed", "setting": "efficacy-evaluable patients, 60/95", "result": 63.2, "unit": "%"}, {"measurement": "Confirmed complete responses", "setting": "[1]", "result": 4.2, "unit": "%"}, {"measurement": "Confirmed partial responses", "setting": "[1]", "result": 20, "unit": "%"}, {"measurement": "Confirmed ORR", "setting": "overall efficacy-evaluable population (n=95), BID and QD", "result": 24.2, "unit": "%"}]}
